{"source": "patent US4287190A", "about": "“Complexes of bivalent copper” (priority 1979, dated 1981)", "key": {"Zymosan paw oedema": {"system": "Zymosan paw oedema", "assay": "Zymosan-induced paw oedema in rats, topically applied copper-salicylates", "conditions": "topical, DMSO-glycerol 4:1 v/v, 5 ml/kg"}, "Carrageenan paw oedema": {"system": "Carrageenan paw oedema", "assay": "Carrageenan-induced paw oedema in rats, topically applied copper-salicylates", "conditions": "topical"}, "[1]": {"system": "polyarthritis induced in rats with Mycobacterium tuberculosis in squalane", "assay": "Polyarthritis induced with Mycobacterium tuberculosis in squalane", "format": "in vivo", "conditions": "Cu[H Sal]2. DMSO formulation"}, "[2]": {"system": "artificially induced inflammation in rats (sodium carrageenan)", "assay": "Carrageenan foot swelling after topical treatment (Example 5, FIG. 2)", "format": "in vivo, Male Wistar rats", "conditions": "topical, 154, 231, 462 and 770 mg, about 6 hours before carrageenan", "experimental": "Male Wistar rats (average weight 250 g) were anaesthetised with diethyl ether and an area of c. 20 sq.cm was shaven high on their backs. The rats were then separated into 7 groups. Group 1, the control rats were not treated. Group 2 rats were treated by the application of a mixture of alcohol and glycerol (4:1), the carrier used for the compound Cu[H Sal]2. C2 H5 OH. Group 3 rats were treated with a 7% w/v solution of salicylic acid in a mixture of alcohol and glycerol (4:1). Group 4, 5, 6 and 7 rats were treated with amounts of Cu[H Sal]2. C2 H5 OH composition prepared according to example 3 containing 154 mg, 231 mg, 462 mg, and 770 mg respectively, of Cu[H Sal]2. C2 H5 OH.\nAbout 6 hours after the topical treatment of the rats, inflammation was induced in a foot of each rat in each of the groups by the injection of 0.1 ml of 1% saline solution of sodium carrageenan into a foot pad of each rat. The inflammation of the feet of the rats in each group was then monitored by the swelling of the feet with a micrometer screw-gauge.\nThe results are shown in FIG. 2 wherein the curves represent the increase in paw thickness of the rats with time after the injection of the inflammatory agent. The curves 1 to 7 represent the swelling of the paws of the rats of groups 1 to 7 respectively."}, "[3]": {"conditions": "Wistar, 2 Hour, DMSO-glycerol 4:1 v/v, 5 ml/kg"}, "[4]": {"conditions": "Wistar, 4 Hour, DMSO-glycerol 4:1 v/v, 5 ml/kg"}, "[5]": {"conditions": "DA × Lewis, 2 Hour, DMSO-glycerol 4:1 v/v, 5 ml/kg"}, "[6]": {"conditions": "DA × Lewis, 4 Hour, DMSO-glycerol 4:1 v/v, 5 ml/kg"}}, "data": [{"compound": "CC(=O)[O-].CC(=O)[O-].[Cu+2]", "note": "[Cu(OAc)]", "values": [{"measurement": "% Inhibition of paw oedema induced with Zymosan", "setting": "Zymosan paw oedema; DA × Lewis, 2 Hour", "value": 14, "unit": "%"}, {"measurement": "% Inhibition of paw oedema induced with Zymosan", "setting": "Zymosan paw oedema; DA × Lewis, 4 Hour", "value": "04", "unit": "%"}, {"measurement": "% Inhibition of paw oedema induced with Zymosan", "setting": "Zymosan paw oedema; Wistar, 1 Hour", "value": 12, "unit": "%"}, {"measurement": "% Inhibition of paw oedema induced with Zymosan", "setting": "Zymosan paw oedema; Wistar, 2 Hour", "value": 12, "unit": "%"}, {"measurement": "% Inhibition of paw oedema induced with Carrageenan", "setting": "Carrageenan paw oedema; [3]", "value": "04", "unit": "%"}, {"measurement": "% Inhibition of paw oedema induced with Carrageenan", "setting": "Carrageenan paw oedema; [4]", "value": 11, "unit": "%"}]}, {"compound": "CS(C)=O.O=C([O-])c1ccccc1O.O=C([O-])c1ccccc1O.[Cu+2]", "note": "[Cu[H Sal]2 . DMSO, copper salicylate DMSO]", "values": [{"measurement": "% Inhibition of paw oedema induced with Zymosan", "setting": "Zymosan paw oedema; DA × Lewis, 2 Hour", "value": 36, "unit": "%"}, {"measurement": "% Inhibition of paw oedema induced with Zymosan", "setting": "Zymosan paw oedema; DA × Lewis, 4 Hour", "value": 22, "unit": "%"}, {"measurement": "% Inhibition of paw oedema induced with Zymosan", "setting": "Zymosan paw oedema; Wistar, 1 Hour", "value": 43, "unit": "%"}, {"measurement": "% Inhibition of paw oedema induced with Zymosan", "setting": "Zymosan paw oedema; Wistar, 2 Hour", "value": 21, "unit": "%"}, {"measurement": "% Inhibition of paw oedema induced with Carrageenan", "setting": "Carrageenan paw oedema; [5]", "value": 47, "unit": "%"}, {"measurement": "% Inhibition of paw oedema induced with Carrageenan", "setting": "Carrageenan paw oedema; [6]", "value": 39, "unit": "%"}, {"measurement": "% Inhibition of paw oedema induced with Carrageenan", "setting": "Carrageenan paw oedema; [3]", "value": 46, "unit": "%"}, {"measurement": "% Inhibition of paw oedema induced with Carrageenan", "setting": "Carrageenan paw oedema; [4]", "value": 53, "unit": "%"}, {"measurement": "effect on the progress of polyarthritis", "setting": "[1]", "value": "effective on the progress of polyarthritis"}]}, {"compound": "O=C(O)c1ccccc1O", "note": "[Salicylic acid (alone), Salicylic acid]", "values": [{"measurement": "% Inhibition of paw oedema induced with Zymosan", "setting": "Zymosan paw oedema; DA × Lewis, 2 Hour", "value": "-08", "unit": "%"}, {"measurement": "% Inhibition of paw oedema induced with Zymosan", "setting": "Zymosan paw oedema; DA × Lewis, 4 Hour", "value": "-05", "unit": "%"}, {"measurement": "% Inhibition of paw oedema induced with Zymosan", "setting": "Zymosan paw oedema; Wistar, 1 Hour", "value": 22, "unit": "%"}, {"measurement": "% Inhibition of paw oedema induced with Zymosan", "setting": "Zymosan paw oedema; Wistar, 2 Hour", "value": 16, "unit": "%"}, {"measurement": "% Inhibition of paw oedema induced with Carrageenan", "setting": "Carrageenan paw oedema; [5]", "value": 44, "unit": "%"}, {"measurement": "% Inhibition of paw oedema induced with Carrageenan", "setting": "Carrageenan paw oedema; [6]", "value": 32, "unit": "%"}, {"measurement": "% Inhibition of paw oedema induced with Carrageenan", "setting": "Carrageenan paw oedema; [3]", "value": 14, "unit": "%"}, {"measurement": "% Inhibition of paw oedema induced with Carrageenan", "setting": "Carrageenan paw oedema; [4]", "value": 18, "unit": "%"}]}, {"compound": "copper salicylate ethanolate [Cu[H Sal]2. C2 H5 OH]", "values": [{"measurement": "anti-inflammatory effect (increase in paw thickness with time)", "setting": "[2]", "value": "clearly shows the anti-inflammatory effect"}, {"measurement": "% Inhibition of paw oedema induced with Carrageenan", "setting": "Carrageenan paw oedema; Wistar, 2 Hour, ethanol-glycerol 4:1 v/v, 5 ml/kg", "value": 24, "unit": "%"}, {"measurement": "% Inhibition of paw oedema induced with Carrageenan", "setting": "Carrageenan paw oedema; Wistar, 2 Hour, ethanol-glycerol 4:1 v/v, 15 ml/kg", "value": 58, "unit": "%"}, {"measurement": "% Inhibition of paw oedema induced with Carrageenan", "setting": "Carrageenan paw oedema; Wistar, 4 Hour, ethanol-glycerol 4:1 v/v, 5 ml/kg", "value": 32, "unit": "%"}, {"measurement": "% Inhibition of paw oedema induced with Carrageenan", "setting": "Carrageenan paw oedema; Wistar, 4 Hour, ethanol-glycerol 4:1 v/v, 15 ml/kg", "value": 53, "unit": "%"}]}]}
